Experimental data reported in PubChem BioAssay (NCI).
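Step 1: Grow cells in 96-well plates. Step 2: Expose to compound for 48 hours at 5 concentrations. Step 3: Interpolate endpoints linearly; if unreached, use highest concentration. GI50: concentration for 50% inhibition of growth. The concentration for full growth arrest is given as TGI.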

Assays:
Experiment in all cases: NCI-60 cell line screen, 48 h
HCT-15 colon = system: HCT-15 colon
SK-MEL-5 melanoma = system: SK-MEL-5 melanoma
SN12C renal = system: SN12C renal
SW-620 colon = system: SW-620 colon
KM12 colon = system: KM12 colon
M14 melanoma = system: M14 melanoma
786-0 renal = system: 786-0 renal
MOLT-4 leukemia = system: MOLT-4 leukemia
TK-10 renal = system: TK-10 renal
OVCAR-8 ovarian = system: OVCAR-8 ovarian
RXF 393 renal = system: RXF 393 renal
UACC-257 melanoma = system: UACC-257 melanoma
U251 CNS = system: U251 CNS
LOX IMVI melanoma = system: LOX IMVI melanoma
T-47D breast = system: T-47D breast
PC-3 prostate = system: PC-3 prostate
MCF7 breast = system: MCF7 breast
K-562 leukemia = system: K-562 leukemia
SR leukemia = system: SR leukemia
ACHN renal = system: ACHN renal
HCC-2998 colon = system: HCC-2998 colon
NCI-H460 lung = system: NCI-H460 lung
OVCAR-3 ovarian = system: OVCAR-3 ovarian
A549 NSCLC = system: A549 NSCLC
A498 renal = system: A498 renal
UACC-62 melanoma = system: UACC-62 melanoma
HT29 colon = system: HT29 colon
SNB-75 CNS = system: SNB-75 CNS
MALME-3M melanoma = system: MALME-3M melanoma
IGROV1 ovarian = system: IGROV1 ovarian
NCI-H226 lung = system: NCI-H226 lung
OVCAR-5 ovarian = system: OVCAR-5 ovarian
NCI/ADR-RES ovarian = system: NCI/ADR-RES ovarian
SK-OV-3 ovarian = system: SK-OV-3 ovarian
MDA-MB-231 breast = system: MDA-MB-231 breast
NCI-H23 lung = system: NCI-H23 lung
UO-31 renal = system: UO-31 renal
BT-549 breast = system: BT-549 breast
SF-295 CNS = system: SF-295 CNS
HOP-62 NSCLC = system: HOP-62 NSCLC
MDA-MB-435 = system: MDA-MB-435
OVCAR-4 ovarian = system: OVCAR-4 ovarian
RPMI-8226 leukemia = system: RPMI-8226 leukemia
COLO 205 colon = system: COLO 205 colon
HOP-92 NSCLC = system: HOP-92 NSCLC
HL-60(TB) leukemia = system: HL-60(TB) leukemia
CAKI-1 renal = system: CAKI-1 renal
DU-145 prostate = system: DU-145 prostate
SK-MEL-28 melanoma = system: SK-MEL-28 melanoma
NCI-H522 lung = system: NCI-H522 lung
HCT-116 colon = system: HCT-116 colon
CCRF-CEM leukemia = system: CCRF-CEM leukemia
HS 578T breast = system: HS 578T breast
SF-268 CNS = system: SF-268 CNS
SNB-19 CNS = system: SNB-19 CNS
EKVX NSCLC = system: EKVX NSCLC

Which results are given for `COc1ccc([C@@H]2[C@@H](O)C(=O)N2c2cc(OC)c(OC)c(OC)c2)cc1F`?
GI50 (HCT-15 colon): 35.9 nM; TGI (HCT-15 colon): > 100000 nM; GI50 (SK-MEL-5 melanoma): 35.1 nM; TGI (SK-MEL-5 melanoma): 175 nM; GI50 (SN12C renal): 50.4 nM; TGI (SN12C renal): > 100000 nM; GI50 (SW-620 colon): 45.9 nM; TGI (SW-620 colon): > 100000 nM; GI50 (KM12 colon): 36.8 nM; TGI (KM12 colon): > 100000 nM; GI50 (M14 melanoma): 35 nM; TGI (M14 melanoma): > 100000 nM; GI50 (786-0 renal): 41.9 nM; TGI (786-0 renal): > 100000 nM; GI50 (MOLT-4 leukemia): 45.8 nM; TGI (MOLT-4 leukemia): > 100000 nM; GI50 (TK-10 renal): > 100000 nM; TGI (TK-10 renal): > 100000 nM; GI50 (OVCAR-8 ovarian): 40.7 nM; TGI (OVCAR-8 ovarian): > 100000 nM; GI50 (RXF 393 renal): 30.5 nM; TGI (UACC-257 melanoma): > 100000 nM; GI50 (U251 CNS): 36 nM; TGI (U251 CNS): > 100000 nM; GI50 (LOX IMVI melanoma): 38.1 nM; TGI (LOX IMVI melanoma): > 100000 nM; GI50 (T-47D breast): > 55200 nM; TGI (T-47D breast): > 100000 nM; GI50 (PC-3 prostate): 54.6 nM; TGI (PC-3 prostate): > 100000 nM; GI50 (MCF7 breast): 35.2 nM; TGI (MCF7 breast): > 100000 nM; GI50 (K-562 leukemia): 38.1 nM; TGI (K-562 leukemia): > 100000 nM; GI50 (SR leukemia): 33.4 nM; TGI (SR leukemia): > 100000 nM; GI50 (ACHN renal): 56.8 nM; TGI (ACHN renal): > 100000 nM; GI50 (HCC-2998 colon): 48.5 nM; TGI (HCC-2998 colon): > 100000 nM; GI50 (NCI-H460 lung): 34.4 nM; TGI (NCI-H460 lung): > 100000 nM; GI50 (OVCAR-3 ovarian): 29.9 nM; TGI (OVCAR-3 ovarian): 114 nM; GI50 (A549 NSCLC): 44.8 nM; TGI (A549 NSCLC): > 100000 nM; GI50 (A498 renal): 22400 nM; TGI (A498 renal): > 100000 nM; GI50 (UACC-62 melanoma): 48.7 nM; TGI (UACC-62 melanoma): > 100000 nM; GI50 (HT29 colon): 30.5 nM; TGI (HT29 colon): 110 nM; GI50 (SNB-75 CNS): 45.6 nM; TGI (SNB-75 CNS): > 100000 nM; GI50 (MALME-3M melanoma): 79.1 nM; TGI (MALME-3M melanoma): > 100000 nM; GI50 (IGROV1 ovarian): 51.5 nM; TGI (IGROV1 ovarian): > 100000 nM; GI50 (NCI-H226 lung): 34.5 nM; TGI (NCI-H226 lung): 432 nM; GI50 (OVCAR-5 ovarian): 49.6 nM; TGI (OVCAR-5 ovarian): > 100000 nM; GI50 (NCI/ADR-RES ovarian): 56.2 nM; TGI (NCI/ADR-RES ovarian): > 100000 nM; GI50 (SK-OV-3 ovarian): 55.9 nM; TGI (SK-OV-3 ovarian): > 84600 nM; GI50 (MDA-MB-231 breast): 49.1 nM; TGI (MDA-MB-231 breast): > 100000 nM; GI50 (NCI-H23 lung): 52.5 nM; TGI (NCI-H23 lung): > 100000 nM; GI50 (UO-31 renal): 72.8 nM; TGI (UO-31 renal): > 100000 nM; GI50 (BT-549 breast): 29.4 nM; TGI (BT-549 breast): 203 nM; GI50 (SF-295 CNS): 36.2 nM; TGI (SF-295 CNS): > 100000 nM; GI50 (HOP-62 NSCLC): 58.2 nM; TGI (HOP-62 NSCLC): > 100000 nM; GI50 (MDA-MB-435): 23.1 nM; TGI (MDA-MB-435): 57.5 nM; GI50 (OVCAR-4 ovarian): 686 nM; TGI (OVCAR-4 ovarian): > 100000 nM; GI50 (RPMI-8226 leukemia): 41.5 nM; TGI (RPMI-8226 leukemia): > 21800 nM; GI50 (COLO 205 colon): 30.3 nM; TGI (COLO 205 colon): 93.3 nM; TGI (HOP-92 NSCLC): > 100000 nM; GI50 (HL-60(TB) leukemia): 32.9 nM; TGI (HL-60(TB) leukemia): 207 nM; GI50 (CAKI-1 renal): 46.3 nM; TGI (CAKI-1 renal): > 61600 nM; GI50 (DU-145 prostate): 39.5 nM; TGI (DU-145 prostate): > 100000 nM; GI50 (SK-MEL-28 melanoma): 792 nM; TGI (SK-MEL-28 melanoma): > 100000 nM; GI50 (NCI-H522 lung): 19.9 nM; TGI (NCI-H522 lung): 53.7 nM; GI50 (HCT-116 colon): 33.9 nM; TGI (HCT-116 colon): > 100000 nM; GI50 (CCRF-CEM leukemia): 42.6 nM; TGI (CCRF-CEM leukemia): > 100000 nM; GI50 (HS 578T breast): 57.6 nM; TGI (HS 578T breast): > 100000 nM; GI50 (SF-268 CNS): 98.4 nM; TGI (SF-268 CNS): > 100000 nM; GI50 (SNB-19 CNS): 79.9 nM; TGI (SNB-19 CNS): > 100000 nM; GI50 (EKVX NSCLC): > 100000 nM; TGI (EKVX NSCLC): > 100000 nM
